Test system: ivyleaf morningglory (Ipomoea hederecea)
Assay: Post-emergent Test I herbicidal activity
Type: in vivo
Description: Post-emergent Test I Seeds test species were obtained from commercial suppliers and planted into a 5″-round pot containing soil-less media mix (metro-mix 360®, Sun Gro Horticulture). Postemergence treatments were planted 8-12 days prior to application and cultured in a greenhouse equipped with supplemental light sources to provide a 16 h photoperiod at 24-29° C. All pots were surface irrigated. Approximately 10 milligrams (mg) of each compound were dissolved in 1.3 mL acetone-DMSO (97:3, v/v) and diluted with 4.1 mL water-isopropanol-crop oil concentrate (78:20:2, v/v/v) containing 0.02% Triton X-155. Treatments were serial diluted with the above formulation solvent to provide 1.85, 0.926, 0.462 and 0.231 mg/mL of test compound delivered in 2.7 mL/pot (roughly equivalent to 4.0, 2.0, 1.0, and 0.5 kg/ha, respectively). Formulated compounds were applied using a DeVilbiss® compressed air sprayer at 2-4 psi. Following treatment, pots were returned to the greenhouse for the duration of the experiment. All pots were sub-irrigated as need to provide optimum growing conditions. All pots were fertilized one time per week by subirrigating with Peters Peat-Lite Special® fertilizer (20-10-20). Phytotoxicity ratings were obtained 10 days after treatment postemergence applications. All evaluations were made visually on a scale of 0 to 100 where 0 represents no activity and 100 represents complete plant death. Visual assessments of plant injury were made based on growth reduction, discoloration, leaf deformity and necrosis

Compound | Visual Growth Reduction (%) 10 Days After Application IPOHE (3.96 Kg ai/ha) | Visual Growth Reduction (%) 10 Days After Application IPOHE (4 Kg ai/ha)
COC(=O)c1nc(-c2ccc3ccn(C)c3c2)c(F)c(N)c1Cl [Compound 1.10] | F (30-44) | –
COC(=O)c1nc(-c2ccc3sccc3c2)cc(N)c1Cl [Compound 3.05] | – | B (85-94)
